Drawing on ChEMBL document CHEMBL3603813, “Quinoline-based antimalarial hybrid compounds” (Bioorg Med Chem, 2015), this text covers IC50 and Activity for 48 molecules.

SMILES strings stand for the structures. A value given as a limit tells only on which side of the number the result lay.

One assay concerns Plasmodium falciparum. Put plainly: Antiplasmodial activity against CQ-resistant Plasmodium falciparum W2 assessed as inhibition of parasite growth.
Conditions: not given
Format: functional, organism-based.
As usually defined, the IC50 is the concentration at which inhibition is half-maximal. In the case of `O=C(NCCNc1cccc2cc(Cl)ccc12)N[C@H]1C(=O)N(C2CCCCC2)[C@H]1/C=C/c1ccccc1`, the IC50 was 42 nM.

For the molecule `O=C(N[C@H](c1ccccc1)[C@H](O)C(=O)NCc1cn(CCNc2ccnc3cc(Cl)ccc23)nn1)c1ccccc1`, the IC50 was determined as 280 nM. For the molecule `Cc1ccc(N2C(=O)[C@H](NC(=O)NCCNc3cccc4cc(Cl)ccc34)[C@@H]2/C=C/c2ccccc2)cc1`, the half-inhibitory concentration (IC50) was found to be 42 nM. As for `O=C(N[C@H](c1ccccc1)[C@H](O)C(=O)NCc1cn(CNc2ccnc3cc(Cl)ccc23)nn1)c1ccccc1`, the IC50 was found to be 280 nM.

In the case of `O=C(NCCNc1ccnc2cc(Cl)ccc12)C(=O)N[C@@H]1C(=O)N(C2CCCCC2)[C@@H]1/C=C/c1ccccc1`, the IC50 came to 34 nM. The same measure, in the same setting: under `COc1cc(NC(C)CCCNC2CCC3(CC2)OOC2(OO3)C3CC4CC(C3)CC2C4)c2ncccc2c1` (stereo not drawn) stands 21 nM. Same read-out and setting: under `CCCN1CNc2cc(Nc3ccnc4cc(Cl)ccc34)ccc2C1` stands 130 nM. Regarding `O=C(NCCCCCCNc1ccnc2cc(Cl)ccc12)N[C@H]1C(=O)N(C2CCCCC2)[C@H]1/C=C/c1ccccc1`, the IC50 is 42 nM.

As to `Cc1ccc(N2C(=O)[C@H](NC(=O)NCCCNc3cccc4cc(Cl)ccc34)[C@@H]2/C=C/c2ccccc2)cc1`, the IC50 is 42 nM. Same read-out and setting: next, `O=C(NCCCNc1cccc2cc(Cl)ccc12)N[C@H]1C(=O)N(C2CCCCC2)[C@H]1/C=C/c1ccccc1`: 42 nM; `Cc1ccc(N2C(=O)[C@@H](NCCNc3ccnc4cc(Cl)ccc34)[C@H]2/C=C/c2ccccc2)cc1`: 80 nM; `O=C(N[C@H](c1ccccc1)[C@H](O)C(=O)OCCCNc1ccnc2cc(Cl)ccc12)c1ccccc1`: 130 nM. On the same count and under the same terms, under `CCN1CNc2cc(Nc3ccnc4cc(Cl)ccc34)ccc2C1` stands 130 nM; under `O=C(NCCCCCCNc1ccnc2cc(Cl)ccc12)C(=O)N[C@@H]1C(=O)N(C2CCCCC2)[C@@H]1/C=C/c1ccccc1`, 34 nM; under `Cc1ccc(N2C(=O)[C@@H](NC(=O)C(=O)NCCNc3ccnc4cc(Cl)ccc34)[C@H]2/C=C/c2ccccc2)cc1`, 34 nM. Same read-out and setting: next, `Cc1ccc(N2C(=O)[C@@H](NC(=O)C(=O)NCCCCNc3ccnc4cc(Cl)ccc34)[C@H]2/C=C/c2ccccc2)cc1`: 34 nM. Turning to `O=C(NCCCNc1ccnc2cc(Cl)ccc12)C(=O)N[C@@H]1C(=O)N(C2CCCCC2)[C@@H]1/C=C/c1ccccc1`, the 50% inhibitory concentration (IC50) stood at 34 nM.

For the molecule `O=C(N[C@H](c1ccccc1)[C@H](O)C(=O)NCc1cn(-c2cccc(Nc3ccnc4cc(Cl)ccc34)c2)nn1)c1ccccc1`, the IC50 is 280 nM.

Take `O=C(NCCCCNc1ccnc2cc(Cl)ccc12)N[C@H]1C(=O)N(C2CCCCC2)[C@H]1/C=C/c1ccccc1`: the IC50 came out at 42 nM. Still for that read-out and setting: under `Cc1ccc(N2C(=O)[C@H](NC(=O)NCCCCNc3ccnc4cc(Cl)ccc34)[C@@H]2/C=C/c2ccccc2)cc1` stands 42 nM; under `Cc1ccc(N2C(=O)[C@@H](NC(=O)C(=O)NCCCCCCNc3ccnc4cc(Cl)ccc34)[C@H]2/C=C/c2ccccc2)cc1`, 34 nM; under `Cc1ccc(N2C(=O)[C@@H](NC(=O)C(=O)NCCCNc3ccnc4cc(Cl)ccc34)[C@H]2/C=C/c2ccccc2)cc1`, 34 nM. Still for that read-out and setting: under `O=C(NCCCCNc1ccnc2cc(Cl)ccc12)C(=O)N[C@@H]1C(=O)N(C2CCCCC2)[C@@H]1/C=C/c1ccccc1` stands 34 nM; under `Cc1ccc(N2C(=O)[C@H](NC(=O)CCCNc3ccnc4cc(Cl)ccc34)[C@@H]2/C=C/c2ccccc2)cc1`, 80 nM; under `Cc1ccc(N2C(=O)[C@H](NC(=O)CCCCCNc3ccnc4cc(Cl)ccc34)[C@@H]2/C=C/c2ccccc2)cc1`, 80 nM.

For `CC(=O)O[C@H](C(=O)OCCCNc1ccnc2cc(Cl)ccc12)[C@H](NC(=O)c1ccccc1)c1ccccc1`, the IC50 was found to be 160 nM.

A further assay relates to Plasmodium falciparum. Put plainly: Antiplasmodial activity against CQ-resistant Plasmodium falciparum K1. The class given is functional, organism-based.
Conditions: not given
`O=C(N[C@H](c1ccccc1)[C@H](O)C(=O)NCc1cn(CCNc2ccnc3cc(Cl)ccc23)nn1)c1ccccc1` registered an IC50 of 390 nM. On the same count and under the same terms, under `O=C(N[C@H](c1ccccc1)[C@H](O)C(=O)NCc1cn(CNc2ccnc3cc(Cl)ccc23)nn1)c1ccccc1` stands 390 nM; under `CCCN1CNc2cc(Nc3ccnc4cc(Cl)ccc34)ccc2C1`, 220 nM.

In turn, `CCN1CNc2cc(Nc3ccnc4cc(Cl)ccc34)ccc2C1` showed an IC50 of 220 nM.

In turn, `O=C(N[C@H](c1ccccc1)[C@H](O)C(=O)NCc1cn(-c2cccc(Nc3ccnc4cc(Cl)ccc34)c2)nn1)c1ccccc1` showed an IC50 of 390 nM.

Another assay has as its system Plasmodium falciparum. Kind of assay: Antiplasmodial activity against CQ-sensitive Plasmodium falciparum 3D7. The class given is functional, organism-based.
Conditions: not given
Regarding `C[C@H]1[C@@H](OCC[N+]2(CCO[C@H]3O[C@@H]4O[C@@]5(C)CC[C@H]6[C@H](C)CC[C@@H]([C@H]3C)[C@@]46OO5)CCN(CCNc3ccnc4cc(Cl)ccc34)CC2)O[C@@H]2O[C@@]3(C)CC[C@H]4[C@H](C)CC[C@@H]1[C@@]24OO3`, the Activity is reported as 30 nM. On to `C[C@H]1[C@@H](OCCN(CCCNc2ccnc3cc(Cl)ccc23)CCO[C@H]2O[C@@H]3O[C@@]4(C)CC[C@H]5[C@H](C)CC[C@@H]([C@H]2C)[C@@]35OO4)O[C@@H]2O[C@@]3(C)CC[C@H]4[C@H](C)CC[C@@H]1[C@@]24OO3`, for which the Activity is listed as 9 nM.

Staying with this assay, now noted: Plasmodium falciparum, 3D7.
Molecule `COc1cc(/C=C2\SC(=S)N(CCNc3ccnc4cc(Cl)ccc34)C2=O)cc(OC)c1OC` displayed a half-inhibitory concentration (IC50) of under 100 nM. Still for that read-out and setting: next, `CCc1c(O)c(=O)ccn1CCCCNc1ccnc2cc(Cl)ccc12`: under 1000 nM; `C=C[C@H]1CN2CC[C@H]1C[C@H]2[C@H](OC(=O)C(C)NC(=O)c1cn(CC)c2ncccc2c1=O)c1ccnc2ccc(OC)cc12` (stereo partly drawn): 16 nM; `C=C[C@H]1CN2CC[C@H]1C[C@H]2[C@H](OC(=O)C(C)NC(=O)c1cn(CC)c2cc3c(cc2c1=O)OCO3)c1ccnc2ccc(OC)cc12` (stereo partly drawn): 12 nM. On the same count and under the same terms, under `Cc1c(O)c(=O)ccn1CCCCNc1ccnc2cc(Cl)ccc12` stands under 1000 nM. Same read-out and setting: under `COc1c(C)n(CCCCCCNc2ccnc3cc(Cl)ccc23)ccc1=O` stands under 1000 nM; under `Cc1c(O)c(=O)ccn1CCCCCCNc1ccnc2cc(Cl)ccc12`, 4 nM. In turn, `CCc1c(O)c(=O)ccn1CCCCCCNc1ccnc2cc(Cl)ccc12` yielded a concentration for half-maximal inhibition (IC50) of under 1000 nM.

In turn, `C=C[C@H]1CN2CC[C@H]1C[C@H]2[C@H](O)c1ccnc2ccc(OC)cc12` [QUININE] came in with an IC50 of 18 nM. `O=C1/C(=C/c2ccccc2[N+](=O)[O-])SC(=S)N1CCCNc1ccnc2cc(Cl)ccc12`: the IC50 was under 100 nM. On the same count and under the same terms, next, `COc1cc(/C=C2\SC(=S)N(CCCNc3ccnc4cc(Cl)ccc34)C2=O)cc(OC)c1OC`: under 100 nM; `C=C[C@H]1CN2CC[C@H]1C[C@H]2[C@H](OC(=O)CNC(=O)c1cn2c3c(c(N4CCN(C)CC4)c(F)cc3c1=O)CC[C@H]2C)c1ccnc2ccc(OC)cc12`: 12 nM; `CCc1c(OCc2ccccc2)c(=O)ccn1CCCCCCNc1ccnc2cc(Cl)ccc12`: under 1000 nM. The same measure, in the same setting: under `O=C1/C(=C/c2ccc([N+](=O)[O-])cc2)SC(=S)N1CCCNc1ccnc2cc(Cl)ccc12` stands under 100 nM. For the molecule `CCc1c(O)c(=O)ccn1CCCNc1ccnc2cc(Cl)ccc12`, the IC50 is under 1000 nM.

The molecule `C=C[C@H]1CN2CC[C@H]1C[C@H]2[C@H](OC(=O)CNC(=O)c1cn(C2CC2)c2nc(N3CCN(CC)CC3)c(F)cc2c1=O)c1ccnc2ccc(OC)cc12` showed a concentration for half-maximal inhibition (IC50) of 12 nM. The same measure, in the same setting: under `COc1cc(/C=C2\SC(=S)N(CCCCNc3ccnc4cc(Cl)ccc34)C2=O)cc(OC)c1OC` stands under 100 nM. In the case of `COc1c(C)n(CCCCNc2ccnc3cc(Cl)ccc23)ccc1=O`, the IC50 was under 1000 nM.

Molecule `CCc1c(OCc2ccccc2)c(=O)ccn1CCCCNc1ccnc2cc(Cl)ccc12` returned a half-inhibitory concentration (IC50) of under 1000 nM.

The molecule `CN(C)c1ccc(/C=C2\SC(=S)N(CCCCNc3ccnc4cc(Cl)ccc34)C2=O)cc1` had an IC50 of under 100 nM.
